This note sets out measurements from ChEMBL document CHEMBL4602684, “Siderophores from the Entomopathogenic Fungus Beauveria bassiana” (J Nat Prod, 2020).

Structures can show the parent of a compound that is named as a salt. Calls of active or inactive are those of the source. No cut-off for these calls is given here.

A short description of experiment [1]: Binding affinity to Fe3+ assessed as formation of Fe3+-compound complex in presence of FeCl3 by HRESIMS method.
Experiment [2] is described as follows: Binding affinity to Fe3+ assessed as formation of Fe3+-compound complex at 100 ug/disk by CAS agar disk diffusion method. Background: In agar diffusion tests the substance spreads into inoculated agar from a disc or well.
A short description of experiment [3]: Binding affinity to Fe3+ assessed as formation of Fe3+-compound complex stoichiometry ratio of 1:1 by HRESIMS method.
Experiment [4] is described as follows: Binding affinity to Fe3+ assessed as formation of Fe3+-compound complex stoichiometry ratio of 2:1 by HRESIMS method.
Experiment [5] is described as follows: Binding affinity to Fe3+ assessed as formation of Fe3+-compound complex stoichiometry ratio of 3:1 by HRESIMS method.
A short description of experiment [6]: Binding affinity to Fe3+ assessed as formation of Fe3+-compound complex incubated for 22 hrs by liquid CAS assay.

In the case of `C/C(=C\C(=O)N(O)CCC[C@@H]1NC(=O)[C@H](CCCN(O)C(=O)C[C@](C)(O)CCO)NC1=O)CCO`, the result in experiment [1] and in experiment [2] was Active.
`C/C(=C\C(=O)N(O)CCC[C@@H]1NC(=O)[C@H](CCC[N+](=O)[O-])NC1=O)CCO`: the result in experiment [3] and in experiment [4] was Active. The result in experiment [5] and in experiment [2] was inactive.
Take `C/C(=C\C(=O)N(O)CCC[C@@H]1NC(=O)[C@H](CCCN(O)C(=O)/C=C(\C)CCO[C@@H]2O[C@H](CO)[C@@H](O)[C@H](O)[C@@H]2O)NC1=O)CCOC(=O)[C@H](CCCN(O)C(=O)/C=C(\C)CCO[C@@H]1O[C@H](CO)[C@@H](O)[C@H](O)[C@@H]1O)[N+](C)(C)[O-]`: in experiment [6], the EC50 (usually the midpoint of the concentration-response curve) was 15.7 µM. The result in experiment [1] and in experiment [2] was Active.
Take `CO[C@H]1[C@H](O)[C@H](O)[C@H](OCC/C(C)=C/C(=O)N(O)CCC[C@@H]2NC(=O)[C@H](CCCN(O)C(=O)/C=C(\C)CCO)NC2=O)O[C@@H]1CO`: the outcome in experiment [1] and in experiment [2] was Active.
For `CC(=O)N(O)CCCCCNC(=O)CCC(=O)N(O)CCCCCNC(=O)CCC(=O)N(O)CCCCCN` [DEFEROXAMINE MESYLATE], in experiment [6], the concentration giving a half-maximal response (EC50) is 20 µM.
`C/C(=C\C(=O)NCCC[C@@H]1NC(=O)[C@H](CCCNC(=O)/C=C(\C)CCO)NC1=O)CCO`: the outcome in experiment [1] and in experiment [2] was inactive.
With `CO[C@H]1[C@H](O)[C@H](O)[C@H](OCC[C@@](C)(O)CC(=O)N(O)CCC[C@@H]2NC(=O)[C@H](CCCN(O)C(=O)/C=C(\C)CCO)NC2=O)O[C@@H]1CO`, the result in experiment [1] and in experiment [2] was Active.
Consider `CO[C@H]1[C@H](O)[C@H](O)[C@H](OCC/C(C)=C/C(=O)N(O)CCC[C@@H](C(=O)O)[N+](C)(C)[O-])O[C@@H]1CO`, for which the result in experiment [3] and in experiment [4] was Active. For the same molecule, the result in experiment [5] and in experiment [2] was inactive.
`C/C(=C\C(=O)N(O)CCC[C@@H](N)C(=O)O)CCO`: in experiment [2], the outcome was inactive.
On to `CO[C@H]1[C@H](O)[C@H](O)[C@H](OCC/C(C)=C/C(=O)N(O)CCC[C@@H](C(=O)O)N(C)C)O[C@@H]1CO`, for which the outcome in experiment [3] and in experiment [4] was Active. For the same molecule, the outcome in experiment [5] and in experiment [2] was inactive.
Turning to `C/C(=C\C(=O)N(O)CCC[C@@H]1NC(=O)[C@H](CCCN(O)C(=O)C[C@](C)(O)CCO[C@@H]2O[C@H](CO)[C@@H](O)[C@H](O)[C@@H]2O)NC1=O)CCO`, the outcome in experiment [1] and in experiment [2] was Active.
As for `C/C(=C\C(=O)N(O)CCC[C@@H]1NC(=O)[C@H](CCCN(O)C(=O)/C=C(\C)CCO)NC1=O)CCO`, the EC50 in experiment [6] is 13 µM. Further, the result in experiment [1] and in experiment [2] was Active.
In the case of `C/C(=C\C(=O)N(O)CCC[C@@H]1NC(=O)[C@H](CCCN(O)C(=O)/C=C(\C)CCO[C@@H]2O[C@H](CO)[C@@H](O)[C@H](O)[C@@H]2O)NC1=O)CCO`, the result in experiment [1] and in experiment [2] was Active.
Take `C[C@@](O)(CCO)CC(=O)N(O)CCC[C@@H]1NC(=O)[C@H](CCCN(O)C(=O)C[C@](C)(O)CCO)NC1=O`: the outcome in experiment [1] and in experiment [2] was Active.
